In PubChem BioAssay AID248 (DTP/NCI, 2004):
Inconclusive results and toxic doses are left out. No stated cut-off is given here; in the data, active means T/C of 150% or more; inactive means T/C below 125%.

System: L1210 leukemia ip in BDF1 mice, survival T/C
Test: NCI In Vivo Anticancer Drug Screen. Data for tumor model L1210 Leukemia (intraperitoneal) in B6D2F1 (BDF1) mice
Details: endpoint: mean survival time, higher = longer survival
Outline: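 Each compound was tested against a transplantable tumor grown in mice. The endpoint was survival, with treated animals benchmarked against vehicle controls as a simple ratio.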

[1] = dose: 100.0 mg/kg/injection, schedule: Q01DX009 (ip), vehicle: Klucel (hydroxypropylcellulose) (HPC)
[2] = dose: 100.0 mg/kg/injection, schedule: Q04DX003 (ip), vehicle: Klucel (hydroxypropylcellulose) (HPC)
[3] = dose: 200.0 mg/kg/injection, schedule: Q01DX009 (ip), vehicle: Klucel (hydroxypropylcellulose) (HPC)
[4] = dose: 200.0 mg/kg/injection, schedule: Q04DX003 (ip), vehicle: Klucel (hydroxypropylcellulose) (HPC)
[5] = dose: 400.0 mg/kg/injection, schedule: Q01DX009 (ip), vehicle: Klucel (hydroxypropylcellulose) (HPC)
[6] = dose: 400.0 mg/kg/injection, schedule: Q04DX003 (ip), vehicle: Klucel (hydroxypropylcellulose) (HPC)
[7] = dose: 100.0 mg/kg/injection, schedule: Q01DX001 (ip), vehicle: other
[8] = dose: 200.0 mg/kg/injection, schedule: Q01DX001 (ip), vehicle: other
[9] = dose: 400.0 mg/kg/injection, schedule: Q01DX001 (ip), vehicle: other
[10] = dose: 100.0 mg/kg/injection, schedule: Q01DX001 (ip), vehicle: saline
[11] = dose: 100.0 mg/kg/injection, schedule: Q01DX009 (ip), vehicle: saline
[12] = dose: 100.0 mg/kg/injection, schedule: Q04DX003 (ip), vehicle: saline
[13] = dose: 200.0 mg/kg/injection, schedule: Q01DX001 (ip), vehicle: saline
[14] = dose: 200.0 mg/kg/injection, schedule: Q01DX009 (ip), vehicle: saline
[15] = dose: 200.0 mg/kg/injection, schedule: Q04DX003 (ip), vehicle: saline
[16] = dose: 400.0 mg/kg/injection, schedule: Q01DX001 (ip), vehicle: saline
[17] = dose: 75.0 mg/kg/injection, schedule: Q01DX001 (ip), vehicle: saline
[18] = dose: 100.0 mg/kg/injection, schedule: Q04DX002 (ip), vehicle: Klucel (hydroxypropylcellulose) (HPC)
[19] = dose: 200.0 mg/kg/injection, schedule: Q04DX002 (ip), vehicle: Klucel (hydroxypropylcellulose) (HPC)
[20] = dose: 400.0 mg/kg/injection, schedule: Q04DX002 (ip), vehicle: Klucel (hydroxypropylcellulose) (HPC)
[21] = dose: 50.0 mg/kg/injection, schedule: Q01DX009 (ip), vehicle: saline with Tween-80
[22] = dose: 100.0 mg/kg/injection, schedule: Q01DX009 (ip), vehicle: saline with Tween-80
[23] = dose: 200.0 mg/kg/injection, schedule: Q01DX009 (ip), vehicle: saline with Tween-80
[24] = dose: 25.0 mg/kg/injection, schedule: Q04DX002 (ip), vehicle: saline
[25] = dose: 50.0 mg/kg/injection, schedule: Q04DX002 (ip), vehicle: saline

Measured: T/C

CCCCCCCCCCCCNC(=O)Nc1ccc(C)cc1C
inactive: [1] 98 % of control | [2] 95 % of control | [3] 94 % of control | [4] 96 % of control | [5] 96 % of control | [6] 100 % of control

O=[N+]([O-])c1ccc2cnn(CSP(=S)(c3ccccc3)c3ccccc3)c2c1
inactive: [7] 93 % of control | [8] 101 % of control | [9] 101 % of control

Cc1cc[n+]([O-])cc1
inactive: [10] 100 % of control | [11] 98 % of control | [12] 94 % of control | [13] 98 % of control | [14] 101 % of control | [15] 102 % of control | [16] 98 % of control | dose: 400.0 mg/kg/injection, schedule: Q01DX009 (ip), vehicle: saline 98 % of control | dose: 400.0 mg/kg/injection, schedule: Q04DX003 (ip), vehicle: saline 98 % of control

CCCCCCC[n+]1ccc(C#N)cc1
inactive: [17] 103 % of control

Cc1ccnc(NC(=O)NC2CCCCC2)c1
inactive: [18] 96 % of control | [19] 101 % of control | [20] 96 % of control

O=C(O)C(O)C(=O)O
inactive: dose: 50.0 mg/kg/injection, schedule: Q01DX009 (ip), vehicle: saline 95 % of control | [11] 89 % of control | [12] 103 % of control | [14] 92 % of control | [15] 100 % of control

CCCCCCCCCCCCCCCC[N+](C)(C)CCCCCCCCCCCCCCCC
inactive: dose: 3.12 mg/kg/injection, schedule: Q03DX003 (ip), vehicle: saline with Tween-80 103 % of control | dose: 6.25 mg/kg/injection, schedule: Q03DX003 (ip), vehicle: saline with Tween-80 100 % of control | dose: 12.5 mg/kg/injection, schedule: Q03DX003 (ip), vehicle: saline with Tween-80 103 % of control | dose: 12.5 mg/kg/injection, schedule: Q04DX003 (ip), vehicle: saline with Tween-80 93 % of control

CCCCCCCCOc1ccc(C=Nc2ccc(C)cc2)cc1
inactive: [1] 98 % of control | [3] 104 % of control | [5] 92 % of control

Cc1cc(C(c2ccccc2)c2ccccc2)cc(C)c1O
inactive: dose: 100.0 mg/kg/injection, schedule: Q01DX001 (ip), vehicle: Klucel (hydroxypropylcellulose) (HPC) 98 % of control | dose: 200.0 mg/kg/injection, schedule: Q01DX001 (ip), vehicle: Klucel (hydroxypropylcellulose) (HPC) 93 % of control | dose: 400.0 mg/kg/injection, schedule: Q01DX001 (ip), vehicle: Klucel (hydroxypropylcellulose) (HPC) 92 % of control

COc1cccc(N=C(N)N=C(N)N)c1
inactive: [17] 101 % of control | dose: 150.0 mg/kg/injection, schedule: Q01DX001 (ip), vehicle: saline 101 % of control | dose: 300.0 mg/kg/injection, schedule: Q01DX001 (ip), vehicle: saline 107 % of control

CC(C)C(=Nc1ccc(Cl)c(Cl)c1)N(C)C
inactive: dose: 44.0 mg/kg/injection, schedule: Q01DX Z (ip), vehicle: methylcellulose (MC) 95 % of control | dose: 66.0 mg/kg/injection, schedule: Q01DX Z (ip), vehicle: methylcellulose (MC) 102 % of control

CCCCN(CCCC)P(=S)(OCC)OCC
inactive: dose: 100.0 mg/kg/injection, schedule: Q04DX003 (ip), vehicle: saline with Tween-80 100 % of control | dose: 200.0 mg/kg/injection, schedule: Q04DX003 (ip), vehicle: saline with Tween-80 102 % of control | dose: 400.0 mg/kg/injection, schedule: Q04DX003 (ip), vehicle: saline with Tween-80 104 % of control

Nc1cccc(OCCCCOc2cccc(N)c2)c1
inactive: [21] 93 % of control | [22] 101 % of control | [23] 107 % of control

O=C(O)CCc1cccc(O)c1
inactive: [24] 111 % of control | [25] 111 % of control | dose: 100.0 mg/kg/injection, schedule: Q04DX002 (ip), vehicle: saline 101 % of control

C=C(Cl)CN(CCCC(=O)O)c1ccccc1
inactive: dose: 100.0 mg/kg/injection, schedule: Q01DX009 (ip), vehicle: other 108 % of control | dose: 100.0 mg/kg/injection, schedule: Q04DX003 (ip), vehicle: other 98 % of control | dose: 200.0 mg/kg/injection, schedule: Q01DX009 (ip), vehicle: other 107 % of control | dose: 200.0 mg/kg/injection, schedule: Q04DX003 (ip), vehicle: other 106 % of control | dose: 400.0 mg/kg/injection, schedule: Q01DX009 (ip), vehicle: other 102 % of control | dose: 400.0 mg/kg/injection, schedule: Q04DX003 (ip), vehicle: other 108 % of control

Cn1c(=O)c2[nH]c(CC3=CCCCC3)nc2n(C)c1=O
inactive: dose: 50.0 mg/kg/injection, schedule: Q01DX001 (ip), vehicle: other 97 % of control | [7] 92 % of control | [8] 95 % of control | [9] 90 % of control

c1ccc(CSC(Cc2ccccc2)(SCc2ccccc2)c2ccccc2)cc1
inactive: dose: 50.0 mg/kg/injection, schedule: Q01DX001 (ip), vehicle: saline 102 % of control | [10] 104 % of control | [13] 98 % of control | [16] 104 % of control

NC(CSS(=O)(=O)O)=NC1CC1
inactive: [18] 94 % of control | [19] 91 % of control | [20] 109 % of control

COc1ccc(C(=O)c2ccccc2)c(OC(=O)Nc2cc([N+](=O)[O-])ccc2F)c1
inactive: [2] 95 % of control | [4] 101 % of control | [6] 98 % of control

O=C(O)CCn1c(=O)n(CCC(=O)O)c(=O)n(CCC(=O)O)c1=O
inactive: [18] 100 % of control | [19] 93 % of control | [20] 86 % of control

Cc1nc(N)[nH]c(=O)c1CCCOc1ccc([N+](=O)[O-])cc1
inactive: dose: 12.5 mg/kg/injection, schedule: Q04DX002 (ip), vehicle: saline 106 % of control | [24] 102 % of control | [25] 95 % of control

CCOC(=O)NCC[N+](C)(C)C
inactive: dose: 6.25 mg/kg/injection, schedule: Q01DX009 (ip), vehicle: saline 94 % of control | dose: 12.5 mg/kg/injection, schedule: Q01DX009 (ip), vehicle: saline 100 % of control | dose: 25.0 mg/kg/injection, schedule: Q01DX009 (ip), vehicle: saline 102 % of control

CCOC(=O)COC(CN)C(Cl)(Cl)Cl (stereo not drawn)
inactive: [21] 93 % of control | [22] 90 % of control | [23] 90 % of control
